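Growth conditions: 96-well plates. Treatment: test compound, 48 hours, 5 concentrations. Analysis: linear interpolation between bracketing concentrations; unreached endpoints set to highest concentration. The concentration for 50% growth inhibition is given as GI50. TGI: total growth inhibition.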
What was measured:
Assay in all cases: NCI-60 cell line screen, 48 h
786-0 renal = test system: 786-0 renal
A498 renal = test system: A498 renal
A549 NSCLC = test system: A549 NSCLC
ACHN renal = test system: ACHN renal
BT-549 breast = test system: BT-549 breast
CAKI-1 renal = test system: CAKI-1 renal
CCRF-CEM leukemia = test system: CCRF-CEM leukemia
COLO 205 colon = test system: COLO 205 colon
DU-145 prostate = test system: DU-145 prostate
EKVX NSCLC = test system: EKVX NSCLC
HCC-2998 colon = test system: HCC-2998 colon
HCT-116 colon = test system: HCT-116 colon
HCT-15 colon = test system: HCT-15 colon
HL-60(TB) leukemia = test system: HL-60(TB) leukemia
HOP-62 NSCLC = test system: HOP-62 NSCLC
HOP-92 NSCLC = test system: HOP-92 NSCLC
HS 578T breast = test system: HS 578T breast
HT29 colon = test system: HT29 colon
IGROV1 ovarian = test system: IGROV1 ovarian
K-562 leukemia = test system: K-562 leukemia
KM12 colon = test system: KM12 colon
LOX IMVI melanoma = test system: LOX IMVI melanoma
M14 melanoma = test system: M14 melanoma
MALME-3M melanoma = test system: MALME-3M melanoma
MCF7 breast = test system: MCF7 breast
MDA-MB-231 breast = test system: MDA-MB-231 breast
MDA-MB-435 = test system: MDA-MB-435
MOLT-4 leukemia = test system: MOLT-4 leukemia
NCI-H226 lung = test system: NCI-H226 lung
NCI-H23 lung = test system: NCI-H23 lung
NCI-H460 lung = test system: NCI-H460 lung
NCI-H522 lung = test system: NCI-H522 lung
NCI/ADR-RES ovarian = test system: NCI/ADR-RES ovarian
OVCAR-3 ovarian = test system: OVCAR-3 ovarian
OVCAR-4 ovarian = test system: OVCAR-4 ovarian
OVCAR-5 ovarian = test system: OVCAR-5 ovarian
OVCAR-8 ovarian = test system: OVCAR-8 ovarian
PC-3 prostate = test system: PC-3 prostate
RPMI-8226 leukemia = test system: RPMI-8226 leukemia
RXF 393 renal = test system: RXF 393 renal
SF-268 CNS = test system: SF-268 CNS
SF-295 CNS = test system: SF-295 CNS
SF-539 CNS = test system: SF-539 CNS
SK-MEL-2 melanoma = test system: SK-MEL-2 melanoma
SK-MEL-28 melanoma = test system: SK-MEL-28 melanoma
SK-MEL-5 melanoma = test system: SK-MEL-5 melanoma
SK-OV-3 ovarian = test system: SK-OV-3 ovarian
SN12C renal = test system: SN12C renal
SNB-19 CNS = test system: SNB-19 CNS
SNB-75 CNS = test system: SNB-75 CNS
SR leukemia = test system: SR leukemia
SW-620 colon = test system: SW-620 colon
T-47D breast = test system: T-47D breast
TK-10 renal = test system: TK-10 renal
U251 CNS = test system: U251 CNS
UACC-257 melanoma = test system: UACC-257 melanoma
UACC-62 melanoma = test system: UACC-62 melanoma
UO-31 renal = test system: UO-31 renal

Cc1ccncc1N1CCN(c2ccnc(Cl)c2)C1=O
GI50 (786-0 renal): > 100 µM | TGI (786-0 renal): > 100 µM | GI50 (A498 renal): > 100 µM | TGI (A498 renal): > 100 µM | GI50 (A549 NSCLC): > 100 µM | TGI (A549 NSCLC): > 100 µM | GI50 (ACHN renal): > 100 µM | TGI (ACHN renal): > 100 µM | GI50 (BT-549 breast): > 100 µM | TGI (BT-549 breast): > 100 µM | GI50 (CAKI-1 renal): > 100 µM | TGI (CAKI-1 renal): > 100 µM | GI50 (CCRF-CEM leukemia): > 100 µM | TGI (CCRF-CEM leukemia): > 100 µM | GI50 (COLO 205 colon): > 100 µM | TGI (COLO 205 colon): > 100 µM | GI50 (DU-145 prostate): > 100 µM | TGI (DU-145 prostate): > 100 µM | GI50 (EKVX NSCLC): > 100 µM | TGI (EKVX NSCLC): > 100 µM | GI50 (HCC-2998 colon): > 100 µM | TGI (HCC-2998 colon): > 100 µM | GI50 (HCT-116 colon): > 100 µM | TGI (HCT-116 colon): > 100 µM | GI50 (HCT-15 colon): > 100 µM | TGI (HCT-15 colon): > 100 µM | GI50 (HL-60(TB) leukemia): > 100 µM | TGI (HL-60(TB) leukemia): > 100 µM | GI50 (HOP-62 NSCLC): > 100 µM | TGI (HOP-62 NSCLC): > 100 µM | GI50 (HOP-92 NSCLC): > 100 µM | TGI (HOP-92 NSCLC): > 100 µM | GI50 (HS 578T breast): > 100 µM | TGI (HS 578T breast): > 100 µM | GI50 (HT29 colon): > 100 µM | TGI (HT29 colon): > 100 µM | GI50 (IGROV1 ovarian): > 100 µM | TGI (IGROV1 ovarian): > 100 µM | GI50 (K-562 leukemia): > 100 µM | TGI (K-562 leukemia): > 100 µM | GI50 (KM12 colon): > 100 µM | TGI (KM12 colon): > 100 µM | GI50 (LOX IMVI melanoma): > 100 µM | TGI (LOX IMVI melanoma): > 100 µM | GI50 (M14 melanoma): > 100 µM | TGI (M14 melanoma): > 100 µM | GI50 (MALME-3M melanoma): > 100 µM | TGI (MALME-3M melanoma): > 100 µM | GI50 (MCF7 breast): > 100 µM | TGI (MCF7 breast): > 100 µM | GI50 (MDA-MB-231 breast): > 100 µM | TGI (MDA-MB-231 breast): > 100 µM | GI50 (MDA-MB-435): > 100 µM | TGI (MDA-MB-435): > 100 µM | GI50 (MOLT-4 leukemia): > 100 µM | TGI (MOLT-4 leukemia): > 100 µM | GI50 (NCI-H226 lung): > 100 µM | TGI (NCI-H226 lung): > 100 µM | GI50 (NCI-H23 lung): > 100 µM | TGI (NCI-H23 lung): > 100 µM | GI50 (NCI-H460 lung): > 100 µM | TGI (NCI-H460 lung): > 100 µM | GI50 (NCI-H522 lung): > 100 µM | TGI (NCI-H522 lung): > 100 µM | GI50 (NCI/ADR-RES ovarian): > 100 µM | TGI (NCI/ADR-RES ovarian): > 100 µM | GI50 (OVCAR-3 ovarian): > 100 µM | TGI (OVCAR-3 ovarian): > 100 µM | GI50 (OVCAR-4 ovarian): > 100 µM | TGI (OVCAR-4 ovarian): > 100 µM | GI50 (OVCAR-5 ovarian): > 100 µM | TGI (OVCAR-5 ovarian): > 100 µM | GI50 (OVCAR-8 ovarian): > 100 µM | TGI (OVCAR-8 ovarian): > 100 µM | GI50 (PC-3 prostate): > 100 µM | TGI (PC-3 prostate): > 100 µM | GI50 (RPMI-8226 leukemia): > 100 µM | TGI (RPMI-8226 leukemia): > 100 µM | GI50 (RXF 393 renal): > 100 µM | TGI (RXF 393 renal): > 100 µM | GI50 (SF-268 CNS): > 100 µM | TGI (SF-268 CNS): > 100 µM | GI50 (SF-295 CNS): > 100 µM | TGI (SF-295 CNS): > 100 µM | GI50 (SF-539 CNS): > 100 µM | TGI (SF-539 CNS): > 100 µM | GI50 (SK-MEL-2 melanoma): > 100 µM | TGI (SK-MEL-2 melanoma): > 100 µM | GI50 (SK-MEL-28 melanoma): > 100 µM | TGI (SK-MEL-28 melanoma): > 100 µM | GI50 (SK-MEL-5 melanoma): > 100 µM | TGI (SK-MEL-5 melanoma): > 100 µM | GI50 (SK-OV-3 ovarian): > 100 µM | TGI (SK-OV-3 ovarian): > 100 µM | GI50 (SN12C renal): > 100 µM | TGI (SN12C renal): > 100 µM | GI50 (SNB-19 CNS): > 100 µM | TGI (SNB-19 CNS): > 100 µM | GI50 (SNB-75 CNS): > 100 µM | TGI (SNB-75 CNS): > 100 µM | GI50 (SR leukemia): > 100 µM | TGI (SR leukemia): > 100 µM | GI50 (SW-620 colon): > 100 µM | TGI (SW-620 colon): > 100 µM | GI50 (T-47D breast): > 100 µM | TGI (T-47D breast): > 100 µM | GI50 (TK-10 renal): > 100 µM | TGI (TK-10 renal): > 100 µM | GI50 (U251 CNS): > 100 µM | TGI (U251 CNS): > 100 µM | GI50 (UACC-257 melanoma): > 100 µM | TGI (UACC-257 melanoma): > 100 µM | GI50 (UACC-62 melanoma): > 100 µM | TGI (UACC-62 melanoma): > 100 µM | GI50 (UO-31 renal): > 100 µM | TGI (UO-31 renal): > 100 µM
